Test results as given in PubChem BioAssay (NCI).
Where “and” joins values, the source holds several entries; their conditions need not be identical. Identical values can stand only once.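 Cells were grown in 96-well plates and exposed to each compound for 48 hours at five concentrations; endpoints were interpolated linearly between bracketing concentrations, or set to the highest concentration if not reached. Abbreviation: GI50, concentration required for 50% inhibition of growth. TGI denotes the concentration required for complete inhibition of growth.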

Legend:
Experiment in all cases: growth of human tumour cells (NCI), 48 h
[1] = system: KM12 colon
[2] = system: UACC-257 melanoma
[3] = system: MCF7 breast
[4] = system: CCRF-CEM leukemia
[5] = system: HCT-15 colon
[6] = system: MDA-MB-231 breast
[7] = system: 786-0 renal
[8] = system: OVCAR-3 ovarian
[9] = system: DU-145 prostate
[10] = system: SNB-75 CNS

| Structure (SMILES) | TGI [1] [µM] | TGI [2] | TGI [3] [µM] | TGI [4] [µM] | TGI [5] [µM] | TGI [6] [µM] | TGI [7] [µM] | TGI [8] [µM] | TGI [9] [µM] | TGI [10] | GI50 [1] | GI50 [2] | GI50 [3] | GI50 [4] | GI50 [5] | GI50 [6] [µM] | GI50 [7] | GI50 [8] | GI50 [9] | GI50 [10] |
| --- | --- | --- | --- | --- | --- | --- | --- | --- | --- | --- | --- | --- | --- | --- | --- | --- | --- | --- | --- | --- |
| O=C(c1ccccc1)C1N=NCC1c1ccc([N+](=O)[O-])cc1 (configuration not stated) | > 100 | 88.4 µM | 56.9 | > 100 | > 100 | > 100 | > 100 | 48.4 | > 100 | 69.2 µM | – | – | – | – | – | – | – | – | – | – |
| CNC(=O)n1ccc2cc(Oc3ccnc(NC(=O)c4ccc(C5CCN(CCO)CC5)cc4)c3)c(OCCOC)cc21 | 24.5 | 5.73 µM | 19.5 | > 100 | 15.6 | 6.11 | 4.38 | 11 | 23.2 | 7.28 µM | 10.4 µM | 2.24 µM | 4.33 µM | 2.8 µM | 4.42 µM | 2.46 | 1.94 µM | 3.67 µM | 11.2 µM | 1.84 µM |
| CCN(CC)c1ccc(C(=C2C=CC(=[N+](CC)Cc3cccc(S(=O)(=O)O)c3)C=C2)c2ccc(N(CC)Cc3cccc(S(=O)(=O)O)c3)cc2)cc1 | 28.9 | > 100 µM | > 100 | 98.5 | > 100 | > 92.6 | 98.9 | 37.4 | > 100 | 17.3 µM | 4.36 µM | 21 µM | 3.66 µM | 6.59 µM | 28.5 µM | 9.61 | 12.9 µM | 5.21 µM | 4.74 µM | 2.75 µM |
| CC/C=C\C=C/C(=O)N/C=C/CC1Cc2cccc(O)c2C(=O)O1 (configuration not stated) | 72.1 | > 100 µM | 49.4 | 39.9 | 42 | 39 | 73.8 | 39.7 | 52 | > 100 µM | 19.2 µM | 25.2 µM | 3.87 µM | 15 µM | 13.6 µM | 17 | 25.2 µM | 15.1 µM | 17.3 µM | 16 µM |
| CCCC[C@H](NC(=O)[C@H]1CCCN1C)C(=O)N(C)[C@H](C[C@@H](OC(C)=O)c1nc(C(=O)N[C@@H](Cc2ccccc2)C[C@H](C)C(=O)OCC)cs1)C(C)C | 18 | > 33.3 µM | > 33.3 | 6.41 | > 33.3 | 0.844 | 9.96 | 6.38 | > 33.3 | 8.92 µM | 0.0114 µM | 7.81 µM | < 0.00333 µM | 0.0122 µM | 0.0365 µM | 0.018 | 0.0171 µM | 0.0083 µM | 0.0137 µM | 0.0152 µM |
| CN(C)S(=O)(=O)c1ccc(NC(=O)COC(=O)c2ccc(S(=O)(=O)N3CCCCC3)cc2)cc1 | > 100 | > 100 µM | > 100 | > 100 | > 100 | > 100 | > 100 | > 100 | > 100 | > 100 µM | > 100 µM | > 100 µM | > 100 µM | > 100 µM | > 100 µM | > 100 | > 100 µM | > 100 µM | > 100 µM | > 100 µM |
| C[C@H](Nc1ncnc2nc[nH]c12)c1cc2cccc(Cl)c2c(=O)n1-c1ccccc1 | > 100 | > 100 µM | > 100 | > 100 | > 100 | > 100 | > 86.7 | > 100 | > 100 | 55.2 µM | 27.1 µM | 8.57 µM | 3.16 µM | 3 µM | 31.5 µM | 46.4 | 1.42 µM | 4.19 µM | 26.2 µM | 0.229 µM |
| COc1cc(C2c3cc4c(cc3OC(N3CCCC3)C2C)OCO4)cc(OC)c1OC (configuration not stated) | 3.68 | 49 µM | 4.06 | > 51.9 | 13 | 9.32 | 30 | 0.601 | 11.3 | 9.4 µM | – | – | – | – | – | – | – | – | – | – |
| CC(C)NC[C@@H](C(=O)N1CCN(c2ncnc3c2[C@H](C)C[C@H]3O)CC1)c1ccc(Cl)cc1 | > 91.9 | > 10 µM and 49.8 µM | > 100 | > 100 | > 100 | > 100 | > 100 | > 100 | > 100 | > 10 µM and 5.44 µM | 0.891 µM and 1.43 µM | > 10 µM and 10.8 µM | 1.6 µM and 1.74 µM | 1.57 µM and 1.24 µM | > 10 µM and 44.8 µM | > 69 | 0.334 µM and 0.546 µM | > 10 µM and 12.3 µM | > 10 µM and 40.3 µM | 0.285 µM and 0.213 µM |
| CC(C)(C)C#CC1=C(Br)C(=O)OC1 | 3.6 | 4.39 µM | 25.9 | > 27.7 | > 22.3 | 11 | 5.96 | 4.28 | 3.31 | > 100 µM | 1.32 µM | 0.886 µM | 3.99 µM | 2.45 µM | 1.6 µM | 2.48 | 2.27 µM | 0.935 µM | 1.53 µM | 37.7 µM |
| ClCCn1c(CCl)nc2ccc(Cl)cc21 | 4.33 | 3.49 µM | 2.01 | 1.65 | 2.23 | 3.38 | 2.94 | 3.45 | 3.22 | 2.41 µM | 1.91 µM | 1.62 µM | 0.372 µM | 0.28 µM | 0.392 µM | 1.52 | 1.32 µM | 1.87 µM | 1.75 µM | 1.14 µM |
| Cc1c(C(=O)/C=C/c2csc3ccccc23)[n+](=O)c2ccccc2n1[O-] | 2.9 | 3.73 µM | 8.18 | 7.56 | 4.4 | 4.81 | 3.09 | 2.62 | 2.78 | 3.34 µM | 1.56 µM | 1.81 µM | 2.28 µM | 2.42 µM | 1.83 µM | 1.94 | 1.64 µM | 1.32 µM | 1.46 µM | 1.38 µM |
| O=C(c1ccc(F)cc1)c1cccc(C(=O)c2ccc(F)cc2)n1 | > 100 | > 56.2 µM | > 100 | > 100 | > 100 | > 100 | 77.1 | > 100 | > 100 | 22.7 µM | – | – | – | – | – | – | – | – | – | – |
| COc1ccc(C(=O)/C=C/c2ccc(/C=C/c3cc(OC)c(OC)c(OC)c3)cc2)cc1 | 83.9 | > 100 µM | 36.6 | > 100 | > 100 | > 100 | 71.1 | 14.3 | > 100 | 47.7 µM | 3.75 µM | 9 µM | 2.18 µM | 4.15 µM | 2.42 µM | 10.2 | 10.4 µM | 3.92 µM | 10.2 µM | 5.5 µM |
| CCCCCn1c(=N)n(CC(O)COc2cccc(C)c2)c2ccccc21 (configuration not stated) | 15.1 | 12 µM | 11.6 | 15.2 | 20.3 | 18.8 | 23.3 | 21.2 | 24 | 16.5 µM | 4.02 µM | 3.36 µM | 2.85 µM | 3.12 µM | 4.93 µM | 5.39 | 7.74 µM | 8 µM | 11.4 µM | 2.65 µM |
| N#Cc1cnc2cc(OC[C@H](O)CO)c(NC(=O)CC3CSSC3)cc2c1Nc1ccc(OCc2cccc(F)c2)c(Cl)c1 | 0.45 | 1.96 µM | 0.176 | 0.251 | 13.2 | 1.03 | 9.6 | 1.24 | 1.36 | 1.74 µM | 0.155 µM | 1.01 µM | 0.0865 µM | 0.0923 µM | 3.96 µM | 0.288 | 1.76 µM | 0.514 µM | 0.637 µM | 0.879 µM |
| CCN(CC)S(=O)(=O)c1ccc(OC)c(Nc2ncc(-c3ccccc3)o2)c1 | > 25 | > 25 µM | > 25 | > 25 | > 25 | > 25 | > 25 | > 25 | > 25 | > 25 µM | 0.845 µM | > 25 µM | > 14.7 µM | > 19.3 µM | > 15.5 µM | > 13.9 | 22.8 µM | > 19.5 µM | > 25 µM | > 9.36 µM |
| CC(C)(C)C[C@H]1NC(C(=O)NCC[C@H](O)CO)[C@H](c2cccc(Cl)c2)[C@@]12C(=O)Nc1cc(Cl)c(F)cc12 (some centres not stated) | 28.8 | 15.9 µM | 11.7 | 45.9 | 37.5 | 32.4 | 33.8 | 28.1 | 30.6 | 29.9 µM | 14.7 µM | 1.75 µM | 1.61 µM | 17.7 µM | 17.8 µM | 14.9 | 17 µM | 14.6 µM | 16.1 µM | 14.1 µM |
| C=CCc1c2c(c(OC)c3ccoc13)C(=O)/C(=C/c1ccccc1OC)O2 | 22.3 | > 100 µM | > 100 | > 100 | > 100 | > 100 | > 100 | 12.2 | > 100 | 4.91 µM | 3.49 µM | 6.41 µM | 2.92 µM | 3.44 µM | 3.6 µM | 4.59 | 6.28 µM | 3.28 µM | 3.19 µM | 1.44 µM |
| Cc1ccc(/C=C2\CN(C(=O)OC(C)(C)C)C/C(=C\c3ccc(C)cc3)C2=O)cc1 | > 100 | > 100 µM | > 100 | > 100 | > 100 | > 54.3 | > 100 | – | > 100 | > 100 µM | 0.149 µM | – | 0.205 µM | 0.587 µM | 0.054 µM | 1.22 | 0.445 µM | 0.352 µM | 0.158 µM | 0.693 µM |
| CC1(C)SC2C(NC(=O)C(N)c3ccccc3)C(=O)N2C1C(=O)O (configuration not stated) | > 100 | > 100 µM | > 100 | > 100 | > 100 | > 100 | > 100 | > 100 | > 100 | > 100 µM | – | – | – | – | – | – | – | – | – | – |
| COc1cccc(/C=C/C(=O)c2cccc(Nc3nc(Nc4ccccc4)nc(Nc4ccccc4)n3)c2)c1 | 18.3 | > 100 µM | 6.91 | 45.5 | > 100 | > 100 | > 65.5 | 33.5 | > 100 | > 94.8 µM | 3.88 µM | > 56 µM | 1.37 µM | 5.26 µM | 9.59 µM | 32.7 | 18.6 µM | 9.16 µM | 19.9 µM | 11.8 µM |
| COc1ccc2nc3cc([N+](=O)[O-])ccc3c(NCCCCCN(C)C)c2c1 | 0.618 | 2.66 µM | 1.04 | 3.09 | – | 1.93 | 1.07 | 12.1 | 11.3 | 1.1 µM | 0.207 µM | 1.03 µM | 0.0514 µM | 0.295 µM | 1.31 µM | 0.249 | 0.15 µM | 1.41 µM | 0.286 µM | 0.247 µM |
| COC(=O)[C@H](Cc1cn(C)cn1)NC(=O)[C@H](Cc1c[nH]c2ccccc12)NC(=O)Nc1cc(C(F)(F)F)cc(C(F)(F)F)c1 | > 10 | > 10 µM | > 10 | > 10 | > 10 | > 10 | > 10 | > 10 | > 10 | > 10 µM | > 10 µM | > 10 µM | > 10 µM | > 10 µM | > 10 µM | > 10 | > 10 µM | > 10 µM | > 10 µM | > 10 µM |
| COc1cc(Cl)cc(-c2nn(C(=O)NCCN3CCOCC3)cc2-c2ccncc2)c1 | > 100 | > 100 µM | > 100 | > 100 | > 100 | > 100 | 37.9 | 7.11 | 57.6 | 8.78 µM | 3.79 µM | 18.4 µM | 3.54 µM | 5.91 µM | 3.79 µM | 13 | 6.88 µM | 2.41 µM | 8.46 µM | 1.73 µM |
